Results reported in paper PMC3750051, “A New Class of Rhomboid Protease Inhibitors Discovered by Activity-Based Fluorescence Polarization” (PLoS ONE, 2013).

Key:
bovine chymotrypsin [1] = molecular target: T1, bovine chymotrypsin (Bos taurus, UniProt P00766); set-up: method as in PMID 23359682; conditions: cited from earlier work
GlpG [2] = molecular target: T2, GlpG (Escherichia coli, UniProt P09391); assay: Gel-based competitive activity-based probe profiling (competitive ABPP); assay type: biochemical, E. coli; conditions: for blocking of EK2 labeling of GlpG (gel-based competitive ABPP): 100 µM compound, 45 nM GlpG, 1 µM probe EK2
Protocol: For the competitive activity-based probe profiling (competitive ABPP) experiment 45 nM of rhomboid in 20 µl of 50 mM HEPES (pH 7.4) containing 10% glycerol and 0.0125% DDM were incubated for 30 min at 37°C shaking with 100 µM of the compound or an equal volume of DMSO. Then either probe EK2 or FP-R was added to a final concentration of 1 µM and incubated for further 30 min at 37°C shaking in the dark. The labeling reaction was stopped with 4× SDS-sample buffer and 10 µl of the reaction (15 ng protein per lane) was applied to a 15% SDS-polyacrylamide gel and run for 1 h 10 min at 200V. The gel was visualized on a fluorescence scanner (Typhoon, Trio +).

E. coli rhomboid GlpG [3] = molecular target: T3, E. coli rhomboid GlpG (Escherichia coli, UniProt P09391); assay: biochemical
bovine trypsin = molecular target: T4, bovine trypsin (Bos taurus, UniProt P00760); assay: IC50 against trypsin; assay type: biochemical; conditions: read-out: apparent IC50 against trypsin
T4 sequence (P00760 24-246): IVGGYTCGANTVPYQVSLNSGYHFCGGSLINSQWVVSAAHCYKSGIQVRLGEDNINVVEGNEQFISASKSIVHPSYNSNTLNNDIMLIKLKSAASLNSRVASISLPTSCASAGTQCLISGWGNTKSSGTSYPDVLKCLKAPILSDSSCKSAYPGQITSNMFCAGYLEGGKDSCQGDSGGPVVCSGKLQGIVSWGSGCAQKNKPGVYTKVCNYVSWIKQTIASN

GlpG [4] = molecular target: T2, GlpG; assay type: biochemical, E. coli; conditions: 36 nM GlpG WT or S201A mutant, 100 µM compound, click reaction with TAMRA-azide
GlpG [5] = molecular target: T2, GlpG; assay: Substrate cleavage of fluorescently labeled TatA (Providencia stuartii) by GlpG; assay type: biochemical, E. coli; conditions: 100 µM compound, 500 nM GlpG, 83 nM TAMRA-labeled TatA, overnight at 37°C
Protocol: The TatA protein from Providencia stuartii was used for generation of a fluorescence substrate. The substrate was constructed to include a His6-tag for purification as well as a LPRTG-motif for sortase-mediated protein labeling. It was expressed and purified as described above. For the labeling reaction, 33 µM of the unlabeled substrate, 50 µM sortase A from S. aureus and 500 µM of the label NH2-Ala-Ala-Ahx-Lys(TAMRA) were added together in labeling buffer (50 mM Tris, pH 7.5 containing 150 mM NaCl, 10 mM CaCl2 and 0.05% (w/v) DDM) and allowed to react o/n at 37°C in the dark. […] This allowed removal of sortase and unlabeled substrate by incubation of the labeling reaction with Ni-NTA agarose beads. The supernatant was applied to a ZEBA-spin desalting column (VWR; MW-cut-off 7 kDa) to remove excess label. 40 µL of a 500 nM rhomboid solution (in 50 mM HEPES (pH 7.4) containing 10% (v/v) glycerol and 0.0125% (w/v) DDM) were incubated for 30 min at 37°C shaking with 100 µM of the compounds or DMSO. Then fluorescently labeled rhomboid substrate TatA (Providencia stuartii) was added to a final concentration of 83 nM. The cleavage reaction was allowed to take place o/n at 37°C shaking in the dark and stopped by the addition of 4× SDS-sample buffer. 10 µl of each reaction (10 ng protein per lane) was applied to a 15% SDS-polyacrylamide gel and run for 1 h 10 min at 200V. The gel was visualized on a fluorescence scanner (Typhoon, Trio +).

bovine chymotrypsin [6] = molecular target: T1, bovine chymotrypsin; assay: IC50 against chymotrypsin; assay type: biochemical; conditions: for IC50: bovine chymotrypsin, read-out: apparent IC50 against chymotrypsin; for potency against GlpG compared with trypsin and chymotrypsin: comparison of apparent IC50 values
GlpG from E. coli = GlpG from E. coli (Escherichia coli, UniProt P09391); assay type: biochemical; conditions: 1 µM probe, 45 nM GlpG WT or inactive S201A mutant, 30 min
E. coli rhomboid GlpG [7] = molecular target: T3, E. coli rhomboid GlpG; assay type: biochemical; conditions: 100 µM compound; for FluoPol signal, % of wild-type signal: 30 min preincubation, 75 nM FP-R, polarization at 4 h, GlpG WT = 100%, duplicate screens

T3 sequence (P09391 whole entry): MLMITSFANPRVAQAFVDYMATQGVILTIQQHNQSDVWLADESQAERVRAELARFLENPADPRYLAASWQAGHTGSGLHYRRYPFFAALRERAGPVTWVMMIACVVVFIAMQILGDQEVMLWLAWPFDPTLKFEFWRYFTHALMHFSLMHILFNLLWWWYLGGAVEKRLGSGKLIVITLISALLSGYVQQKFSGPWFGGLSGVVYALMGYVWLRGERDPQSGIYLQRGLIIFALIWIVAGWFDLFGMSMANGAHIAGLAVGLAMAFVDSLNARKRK
T2 sequence (P09391 whole entry): as above
Sequence of GlpG from E. coli (P09391 whole entry): as above

Row | Molecule | IC50 (E. coli rhomboid GlpG [3]) [µM] | blocking of EK2 labeling of GlpG (gel-based competitive ABPP) (GlpG [2]) | inhibition of substrate cleavage (GlpG [5]) | further results
1 | Nc1ccc2c(Cl)c(OCCc3ccccc3)oc(=O)c2c1 [S016, reference compound] | 1.1 ± 0.56 |  |  | potency against chymotrypsin compared with GlpG (bovine chymotrypsin [1]): more potent against chymotrypsin than against GlpG; prevention of probe labeling of GlpG WT by pre-inhibition (GlpG [2]; 100 µM inhibitor, 30 min, 1 µM probe EK2 or FP-R): Labeling was also prevented
2 | C#CCCCC(=O)OCC1=CC2(CC=C(C)C)C(=O)OC2C1 (stereo not shown) [Compound 43] | 44 ± 10 | able to block | able to block | IC50 (bovine trypsin): > 150 µM; tandem activity-based labeling of GlpG (fluorescent gel band) (GlpG [4]): Wild-type GlpG, but not the inactive S201A mutant was visualized; IC50 (bovine chymotrypsin [6]): > 50 µM; potency against GlpG compared with trypsin and chymotrypsin (bovine chymotrypsin [6]): higher potency against GlpG than against trypsin and chymotrypsin
3 | CN(C)c1ccc2c(-c3ccc(C(=O)NCCCn4cc(CCOc5oc(=O)c6cc(N)ccc6c5Cl)nn4)cc3C(=O)[O-])c3ccc(=[N+](C)C)cc-3oc2c1 [EK2] |  |  |  | activity-based labeling of GlpG by the probe (GlpG from E. coli): labeled wild-type (WT) GlpG from E. coli, but not the inactive S201A mutant
4 | O=c1oc(OCCCCCc2ccccc2)c(Cl)c2ccc([N+](=O)[O-])cc12 [Compound 10] | 5.2 ± 0.8 | able to block | able to block | FluoPol signal, % of wild-type signal (E. coli rhomboid GlpG [7]): slightly negative
5 | C#CCCC[C@@H]1OC(=O)[C@H]1CCCC [Compound 31] | 26 ± 5.8 | able to block | able to block | IC50 (bovine trypsin): > 150 µM; tandem activity-based labeling of GlpG (fluorescent gel band) (GlpG [4]): Wild-type GlpG, but not the inactive S201A mutant was visualized; IC50 (bovine chymotrypsin [6]): > 50 µM; potency against GlpG compared with trypsin and chymotrypsin (bovine chymotrypsin [6]): higher potency against GlpG than against trypsin and chymotrypsin
6 | Nc1ccc2c(Cl)c(OCCCCCc3ccccc3)oc(=O)c2c1 [Compound 2] | 0.75 ± 0.21 | able to block | able to block | 
7 | Nc1ccc2c(Cl)c(OCCc3cn(Cc4ccccc4)nn3)oc(=O)c2c1 [Compound 27] | 3.1 ± 0.91 | able to block | able to block | 
8 | CCCCOc1oc(=O)c2cc(N)ccc2c1Cl [Compound 3] | 0.4 ± 0.1 | able to block | able to block | FluoPol signal, % of wild-type signal (E. coli rhomboid GlpG [7]): slightly negative
9 | CCCCOc1oc(=O)c2cc([N+](=O)[O-])ccc2c1Cl [Compound 11] | 5.5 ± 0.55 | able to block | able to block | 
10 | vibralactone [reference compound] |  |  |  | activity against rhomboid (E. coli rhomboid GlpG [7]; FluoPol ABPP screen): inactive
11 | O=c1oc(OCCBr)c(Cl)c2ccc([N+](=O)[O-])cc12 [Compound 12] | 8.4 ± 1.7 | able to block | able to block | FluoPol signal, % of wild-type signal (E. coli rhomboid GlpG [7]): slightly negative
